“Also recorded” adds a separate entry of the source.
Experiments:
[1] = tested on: myeloma cells (RPMI-8226, U266, MM1S, H929); assay: IncuCyte Zoom NK cell killing of myeloma cells; type: cell-based, human
Description: (§1) FIGS. 7A-7B illustrate the ability of peripheral blood NK cells with or without B7-H3-TriKE to kill myeloma cells in live imaging IncuCyte Zoom assays. FIG. 7A is a graph showing the effects with effector:target (E:T) ratios of 2:1 and 4:1 on MM1S cells. FIG. 7B is a graph showing the effects with effector:target (E:T) ratios of 2:1 and 4:1 on U266 cells.
as §1, with “8A-8D” for “7A-7B”, “8A is a graph showing the effects with effector:target (E:T) ratios of 2:1 and 4:1 on H929 cells. FIG. 8B” for “7A”, “8C is a graph showing the effects with effector:target (E:T) ratios of 2:1 and 4:1 on RPMI-8226 cells. FIG. 8D” for “7B”
(§2) The ability of peripheral blood NK cells with or without B7-H3-TriKE to kill myeloma cells was compared in live imaging IncuCyte Zoom assays with escalating doses of TriKE. Maximal killing occurred with 3 nM concentration.

[2] = tested on: MM1S cells; assay: IncuCyte Zoom NK cell killing of MM1S; type: cell-based, human; conditions: E:T 2:1 and 4:1
Description: as §1
as §1, with “8A-8D” for “7A-7B”, “8A is a graph showing the effects with effector:target (E:T) ratios of 2:1 and 4:1 on H929 cells. FIG. 8B” for “7A”, “8C is a graph showing the effects with effector:target (E:T) ratios of 2:1 and 4:1 on RPMI-8226 cells. FIG. 8D” for “7B”
(§3) FIGS. 9A-9D illustrate the efficacy of B7-H3-TriKE with the proteasome inhibitor bortezomib (10 nM) and the immunomodulatory drug lenalidomide (5 μM). FIG. 9A is a graph showing the effect of the combination therapy on H929 cells after 48 hours. FIG. 9B is a graph showing the effect of the combination therapy on RPMI-8226 cells after 48 hours. FIG. 9C is a graph showing the effect of the combination therapy on MM1S cells after 48 hours. FIG. 9D is a graph showing the effect of the combination therapy on U266 cells after 48 hours.
as §2
(§4) The efficacy of B7-H3-TriKE with the proteasome inhibitor bortezomib (10 nM) and the immunomodulatory drug lenalidomide (5 μM) was also tested. Cytotoxicity curves were compared by repeated measures ANOVA and performed in triplicate.

[3] = tested on: RPMI-8226 cells; assay: IncuCyte Zoom NK cell killing of RPMI-8226; type: cell-based, human; conditions: E:T 4:1
Description: as §1, with “8A-8D” for “7A-7B”, “8A is a graph showing the effects with effector:target (E:T) ratios of 2:1 and 4:1 on H929 cells. FIG. 8B” for “7A”, “8C is a graph showing the effects with effector:target (E:T) ratios of 2:1 and 4:1 on RPMI-8226 cells. FIG. 8D” for “7B”
as §3, §2, §4

[4] = tested on: PC-3 spheroids; assay: PC-3 spheroid assay; type: cell-based, human
Description: FIG. 18 is a graph illustrating the size of PC-3 spheroids over time.
FIG. 19 is a graph illustrating the size of PC-3 spheroids over time.

[5] = tested on: normal immune cells (PBMCs); assay: Background NK cell activity in PBMCs without tumor targets; type: cell-based, human
Protocol: (§5) ADCC was measured in a flow cytometry assay by evaluating degranulation via CD107a (lysosomal-associated membrane protein LAMP-1) and intracellular IFNγ production. Upon thawing, normal donor and patient-derived PBMCs or ascites cells were rested overnight (37° C., 5% CO2) in RPMI 1640 media supplemented with 10% fetal calf serum (RPMI-10). The next morning, they were suspended with tumor-target cells or media after washing twice with RPMI-10. Cells were then incubated with TriKEs or controls for 10 min at 37° C. Fluorescein isothiocyate (FITC)-conjugated anti-human CD107a monoclonal antibody (BD Biosciences, San Jose, CA, USA) was then added. […] Samples were washed and evaluated in an LSRII flow cytometer (BD Biosciences, San Jose, CA, USA).
(§6) The ability of cam1615B7-H3 TriKE to mediate NK cell activity against ovarian cancer cells was evaluated. […] In order to determine if the individual components of the TriKE could induce NK cell activity on their own, the individual cam16 VHH, IL-15, or anti-B7-H3 scFv components were incubated with PBMCs and OVCAR8 cells and activity was determined. […] NK cell activity, from normal donor PBMCs and ascites from the peritoneal cavity of ovarian cancer patients at the time of surgery, was assessed against MA-148 cells, another high-grade serous ovarian adenocarcinoma cell line (FIGS. 29A-29B and 30G-30H). […]

[6] = tested on: ovarian cancer cell lines; assay: NK cell activation against ovarian cancer lines vs K562 / Raji; type: cell-based
Protocol: as §5, §6

Substance: B7-H3 TriKE: camelid nanobodies targeting CD16 and B7-H3 joined by IL-15 and two linkers; sequence table equates the name with cam1615B7-H3
- NK cell mediated killing of myeloma lines ([1]; 3 nM B7-H3-TriKE, all four myeloma lines): statistically significant increase; also recorded: significantly enhanced NK cell mediated killing of myeloma cells
- TriKE concentration giving maximal killing ([1]; escalating doses of TriKE, peripheral blood NK cells): 3 nM
- NK cell killing of MM1S [2]: significantly enhanced killing
- NK cell killing of RPMI-8226 [3]: enhanced killing
- PC-3 spheroid size over time [4]: reduce PC-3 spheroid size over time
- killing of PC3 spheroids ([4]; photographs, FIG. 20): efficient killing of PC3 spheroids

Substance: cam1615B7-H3: second-generation TriKE: humanized camelid anti-CD16 VHH, human wild-type IL-15, anti-B7-H3 mAb 376.96 scFv; SEQ ID NO:1
- background NK cell IFNγ [5]: No background noise
- background NK cell degranulation (CD107a) [5]: some background degranulation (CD107a) on NK cells in comparison to controls, but this activity was low
- IFNγ production against ovarian cancer vs K562 natural cytotoxicity signal ([6]; K562 in the absence of TriKE): stronger IFNγ production
- fold NK cell activation (PBMC+Tumor+TriKE divided by PBMC+TriKE alone) ([6]; all ovarian cancer cell lines vs Raji): higher than activation by the B7-H3-negative Raji line

From patent US20250145715A1, “B7-H3 TARGETING FUSION PROTEINS AND METHODS OF USE THEREOF” (GT Biopharma, Inc., priority 2021, published 2025)
